# Assay results published in the PolyMetriX glass transition set.
# ± gives the standard deviation of the reports.
row,SMILES,glass transition temperature
1,*Oc1ccc(C(=O)OCCN(CCOC(=O)c2ccc(OC3(F)C(*)(F)C(F)(F)C3(F)F)cc2)c2ccc(/C=C/C3=CC(=C(C#N)C#N)CC(C)(C)C3)cc2)cc1 (repeat unit),143.00 °C
2,*c1ccc(Oc2ccc(N3C(=O)c4cc(-c5ccc(C(C)(C)C)cc5)c(-c5cc6c(cc5-c5ccc(C(C)(C)C)cc5)C(=O)N(*)C6=O)cc4C3=O)cc2)cc1 (repeat unit),370.00 °C
3,*C(=O)Oc1ccc(C2(c3ccc(OC(=O)c4ccc5c(c4)C(=O)N(c4ccc(-c6ccc(N7C(=O)c8ccc(*)cc8C7=O)cc6C)c(C)c4)C5=O)cc3)CC3CC2C2CCCC32)cc1 (repeat unit),226.00 °C
4,*CCCNC(=O)CCCCC(=O)NCCCN(*)C (repeat unit),5.00 °C
5,*CC(*)(C)C(=O)OCCOC (repeat unit),24.00 °C
6,*CC(CCCCCCOc1ccc(/N=N/c2ccc(Br)cc2)cc1)COC(=O)CCCCC(=O)O* (repeat unit),24.00 °C
7,*Oc1ccc(S(=O)(=O)c2ccc(Oc3ccc(C(C)(C)c4ccc(*)cc4)cc3)cc2)cc1 (repeat unit),186.00 °C
8,*CC(O)CN(C)S(=O)(=O)c1cccc(S(=O)(=O)N(C)CC(O)COc2ccc(C3(c4ccc(O*)cc4)c4ccccc4-c4ccccc43)cc2)c1 (repeat unit),127.00 °C
9,*C(=O)c1ccc2c(c1)C(=O)N(c1ccc(-c3ccc(Oc4ccc(C5(C)CC(C)(C)c6ccc(Oc7ccc(-c8ccc(N9C(=O)c%10ccc(*)cc%10C9=O)cc8)cc7C(F)(F)F)cc65)cc4)c(C(F)(F)F)c3)cc1)C2=O (repeat unit),252.00 °C
10,*CCOC(=O)NCCCCCCNC(=O)O* (repeat unit),56.00 °C
11,*Oc1ccc(C(C)(C)c2ccc(OC(=O)c3cccc(C(*)=O)c3)c(C)c2)cc1C (repeat unit),162.00 °C
12,*O[Si](*)(C)CC[Si](OCCOC)(OCCOC)OCCOC (repeat unit),28.90 °C
13,*CCCOC(=O)CCC(=O)O* (repeat unit),-34.70 °C
14,*CC(=O)OC(=O)COc1ccc(C(C)(C)c2ccc(O*)cc2)cc1 (repeat unit),105.00 °C
15,*CC(*)c1ccc(COCC(CC)CCCC)cc1 (repeat unit),-23.00 °C
16,*CC(*)(C)C(=O)OC1CCCCC1C(C)(C)C (repeat unit),185.00 °C
17,*CCCNC(=O)c1ccc(C(=O)NCCCO*)cc1 (repeat unit),72.00 °C
18,*CCCCCCN1C(=O)C(=O)N(c2ccc(Cc3ccc(N4C(=O)C(=O)N(*)C4=O)cc3)cc2)C1=O (repeat unit),158.00 °C
19,*Oc1ccc(C(c2ccc(Oc3ccc(C(=O)c4cccc5cccc(C(=O)c6ccc(*)cc6)c45)cc3)cc2)(C(F)(F)F)C(F)(F)F)cc1 (repeat unit),213.00 °C
20,*c1ccc(Oc2ccc(C(=O)c3cccc(C(=O)c4ccc(Oc5ccc(-n6c(=O)c7cc8c(=O)n(*)c(=O)c8cc7c6=O)cc5C(F)(F)F)cc4)n3)cc2)c(C(F)(F)F)c1 (repeat unit),227.10 °C
21,*Oc1ccc(P(=O)(c2ccccc2)c2ccc(Oc3ccc(C(C)(C)c4ccc(*)cc4)cc3)cc2)cc1 (repeat unit),199.00 °C

row,SMILES,glass transition temperature
1,*C(=O)Nc1ccc(-c2ccc(NC(=O)c3ccc4c(c3)C(=O)N(c3ccc(Oc5ccc(N6C(=O)c7ccc(*)cc7C6=O)cc5)cc3)C4=O)cc2)cc1 (repeat unit),315.00 °C
2,*c1ccc(Oc2ccc(-c3ccc(Oc4ccc(N5C(=O)c6ccc(Oc7ccc(Oc8ccc9c(c8)C(=O)N(*)C9=O)cc7)cc6C5=O)cc4)cc3)cc2)cc1 (repeat unit),230.00 °C
3,*C(=O)c1cc(C(=O)c2ccc3c(c2)C(=O)N(c2ccc(Oc4ccc(S(=O)(=O)c5ccc(Oc6ccc(N7C(=O)c8ccc(*)cc8C7=O)cc6)cc5)cc4)cc2)C3=O)cc(-c2ccccc2)c1 (repeat unit),256.50 °C
4,*/C=C/c1cc(OCC(CC)CCCC)c(*)cc1-c1ccc(F)c(C(F)(F)F)c1 (repeat unit),122.00 °C
5,*CCN(*)C(=O)CCCCCCCCCCC (repeat unit),10.00 °C
6,*CC(*)c1cc(C(=O)OC)ccc1-c1ccc(OCCCCCCCC)cc1 (repeat unit),126.00 °C
7,*c1ccc(Oc2ccc(P(=O)(c3ccccc3)c3ccc(Oc4ccc(-c5ccc(*)nc5)cc4)cc3)cc2)cc1 (repeat unit),257.00 °C
8,*OC(=O)Oc1ccc(S(=O)(=O)c2ccc(OC(=O)OC3CC4CC(*)CC(C3)O4)cc2)cc1 (repeat unit),184.00 °C
9,*c1ccc(-c2cc(CCCCCCCC)c(-c3ccc(-c4ccc(-c5sc(-c6ccc([Si](C)(C)[Si](C)(C)[Si](C)(C)[Si](C)(C)[Si](C)(C)[Si](C)(C)[Si](C)(C)[Si](*)(C)C)s6)cc5CCCCCCCC)s4)s3)s2)s1 (repeat unit),13.00 °C
10,*c1cccc(N/C=C/C(=O)c2cccc(C(=O)/C=C/Nc3cccc(S(*)(=O)=O)c3)c2)c1 (repeat unit),215.00 °C
11,*Oc1ccc(/N=C(\C)c2ccc(Oc3ccc(C(c4ccccc4)(c4ccccc4)c4ccc(Oc5ccc(/C(C)=N/c6ccc(*)cc6)cc5)cc4)cc3)cc2)cc1 (repeat unit),150.00 °C
12,*c1ccc(Oc2ccc(C(=O)c3cccc(C(=O)c4ccc(Oc5ccc(-c6c7c(c(*)c8ccccc68)C(=O)N(C)C7=O)cc5)cc4)c3)cc2)cc1 (repeat unit),251.00 °C
13,*c1ccc(Sc2ccc(Sc3ccc(N4C(=O)c5ccc(Oc6ccc7c(c6)C(=O)N(*)C7=O)cc5C4=O)cc3)s2)cc1 (repeat unit),218.00 °C
14,*C(CC(C)C)C(=O)Nc1ccc(Oc2ccc(NC(=O)NCC3(C)CC(NC(=O)Nc4ccc(Oc5ccc(NC(=O)C(CC(C)C)n6c(=O)c7cc8c(=O)n(*)c(=O)c8cc7c6=O)cc5)cc4)CC(C)(C)C3)cc2)cc1 (repeat unit),147.50 °C
15,*CC(*)C(=O)OCC(C)C (repeat unit) [Poly(isobutyl acrylate) ],-24 ± 30 °C
16,*c1ccc(Oc2cccc(Oc3ccc(N4C(=O)c5ccc(Oc6ccc(C(=O)c7ccc(Oc8ccc9c(c8)C(=O)N(*)C9=O)cc7)cc6)cc5C4=O)cc3)c2)cc1 (repeat unit),194.00 °C
17,*/C=C/C1CC(*)C2C(=O)N(CCCCCCCC)C(=O)C12 (repeat unit),56.50 °C
18,*CCCCCCCCCCCCCCc1ccc(-c2c(-c3ccccc3)cc(-c3ccc(-c4cc(-c5ccccc5)c(-c5ccc(*)cc5)c(-c5ccccc5)c4-c4ccccc4)cc3)c(-c3ccccc3)c2-c2ccccc2)cc1 (repeat unit),185.00 °C
19,*c1ccc(-c2cc(-c3ccc(-c4ccccc4)cc3)cc(-c3ccc(N4C(=O)c5ccc(NC(=O)Nc6ccc(Oc7ccc(NC(=O)Nc8ccc9c(c8)C(=O)N(*)C9=O)cc7)cc6)cc5C4=O)cc3)n2)cc1 (repeat unit),241.00 °C
20,*c1ccc(Oc2ccc(S(=O)(=O)c3ccc(Oc4ccc(-c5c6c(c(*)c7ccccc57)C(=O)N(c5ccccc5-c5ccccc5)C6=O)cc4)cc3)cc2)cc1 (repeat unit),278.00 °C
